{"source": "patent US8293274B2", "about": "“Intestinal absorptive anti-tumor agent” (Kabushiki Kaisha Sangi, priority 2005, dated 2012)", "assay": "Intestinal absorption test of various antitumor agents (plasma concentration by gas/liquid chromatography)", "experimental": "Rats were fasted for 16 hours and then forced oral administration to the stomach was performed using an oral gastric tube for rats.\nBlood was collected from the tail vein prior to administration and 15 and 30 minutes, 1, 2, 3, 4, 6, 8 and 24 hours after administration. The collected blood was centrifuged at 4° C. for 15 minutes at 3,000 rpm to obtain plasma, and then the plasma concentrations of the various antitumor agents were measured.\nThese concentrations were measured using gas chromatography and liquid chromatography.", "key": {"[1]": {"conditions": "male, Sprague-Dawley, rat, in vivo, po, 50 mg/kg"}, "[2]": {"conditions": "male, Sprague-Dawley, rat, in vivo, po, 0.2 mg/kg"}, "[3]": {"conditions": "bleomycin hydrochloride in plasma, rats fasted 16 hours, oral, 2.0 mg/kg"}}, "note": "Structures can show the parent of a compound that is named as a salt.", "data": [{"molecule": "O=P1(NCCCl)OCCCN1CCCl", "note": "(stereo not drawn) [Comparative Test Example 4-2, ifosfamide]", "values": [{"measurement": "AUC(0-t)", "setting": "[1]", "value": 1240, "unit": "ng·h/mL"}, {"measurement": "Cmax", "setting": "[1]", "value": 250, "unit": "ng/mL"}, {"measurement": "Tmax", "setting": "[1]", "value": 45, "unit": "min"}]}, {"molecule": "CC[C@]1(O)C[C@H]2CN(CCc3c([nH]c4ccccc34)[C@@](C(=O)OC)(c3cc4c(cc3OC)N(C=O)[C@H]3[C@@](O)(C(=O)OC)[C@H](OC(C)=O)[C@]5(CC)C=CCN6CC[C@]43[C@@H]65)C2)C1", "note": "[Comparative Test Example 4-4, vincristine sulfate]", "values": [{"measurement": "AUC(0-t)", "setting": "[2]", "value": 1110, "unit": "ng·h/mL"}, {"measurement": "Cmax", "setting": "[2]", "value": 90, "unit": "ng/mL"}, {"measurement": "Tmax", "setting": "[2]", "value": 49.8, "unit": "min"}]}, {"molecule": "bleomycin hydrochloride [Comparative Test Example 4-3]", "values": [{"measurement": "AUC0-24 h", "setting": "[3]", "value": 520, "unit": "ng·h/mL"}, {"measurement": "Cmax", "setting": "[3]", "value": 120, "unit": "ng/mL"}, {"measurement": "Tmax", "setting": "[3]", "value": 85.2, "unit": "min"}]}]}
